{"source": "paper PMC11607671", "about": "“Antiviral activity of cathelicidins against porcine epidemic diarrhea virus (PEDV): Mechanisms, and efficacy” (Virus Research, 2024)", "key": {"[1]": {"tested_on": "Vero cells", "quoted_text": "To investigate the cellular localization of LL-37, Fluorogenic (FL) LL-37 was incubated with Vero cells for 3 h The cells were then washed with PBS and further incubated for 24 h at 37 °C. FC analysis was conducted to evaluate the amount of labeled LL-37 adhered or internalized within the cell, as described earlier (using unlabeled LL-37 as control). Additionally, to assess LL-37 uptake in Vero cells, the cells were incubated with FL LL-37 at concentrations of 1 and 5 µM for 30 min, 60 min, and 180 min, followed by PBS washes. After incubation, the cells were fixed with 4% PFA for 30 min at RT. After two PBS washes, DAPI (Thermo Fisher Scientific, Waltham, MA, USA) diluted in PBS (1:1000) was added for 5 min to stain the nuclei. The live cells were then imaged using a Leica TCS SP2 confocal microscope with a 63 × objective. To examine the uptake mechanism, Vero cells were first incubated at 4 °C for 30 min to inhibit energy-dependent pathways before adding FL LL-37. Subsequently, the cells were incubated with the peptide at 4 °C for 30, 60, and 180 min. FC analysis was performed to quantify the amount of FL LL-37 adhered to or internalized by the cells.\nA) Following a 3 h incubation with Vero cells and subsequent washing, the cellular entry of FL LL-37 and unlabeled LL-37 was examined using FC. Two concentrations of LL-37 were employed for this investigation. B) After treating the cells with 1 and 5 µM FL LL-37 for 30 min, 1 h, and 3 h, the cells were washed, and DAPI staining was applied before imaging using confocal microscopy. […] The image was acquired at a magnification of 63x. The sample designated as 'cells only' comprises only cells, with an absence of peptides and viruses. In contrast, the 'no peptide' sample is characterized by the presence of only the virus.\nCellular uptake of fluorescein-labeled LL-37 (1 μM and 5 μM) in Vero cells was assessed after incubation for A) 30 min, B) 60 min, and C) 180 min, using a temperature-controlled assay at both 37 °C and 4 °C. Untreated cells (cells only) were used as the control."}, "[2]": {"tested_on": "PEDV-GFP", "assay": "Co-incubation antiviral assay of the extended AMP panel and of FL LL-37", "format": "cell-based, Porcine epidemic diarrhea virus", "conditions": "FC; for prevention of PEDV-GFP entry into Vero cells, extended AMP panel, in words: co-incubation with PEDV-GFP, 1 and 5 µM, 3 h, two independent experiments in duplicate, Fig. 5", "experimental": "(§1) In order to determine the effect of AMPs on the infectivity of PEDV, Vero cells (5 × 10^5 per well) were seeded in 12-well plates and cultured overnight at 37 °C, 5% CO2. In a co-incubation of virus and AMPs experiments (Fig. 2A), the mixture of AMPs (0–10 µM) and PEDV-GFP (MOI= 0.3) in a 1 mL volume of DMEM (P/S + 10% FCS) was added to the cells and incubated at 37 °C. After 2 h, the supernatant was replaced with fresh DMEM (P/S + 10% FCS) and incubated for 24 h. Subsequently, the cells were washed 2 times with flow cytometry buffer (500 mL PBS+ 10 mL FCS+ 250 µL of 10% NaN3) and were imaged with an EVOS M5000 Imaging System for semi-quantitative determination of infectivity. Eventually, cells were carefully detached by 2.5% trypsin, stained with ViaKrome 808 fixable viability dye (1:1000), and incubated for 30 min at 4 °C. Following washing, the cells were fixed using 50 µL of 4% PFA for 10 min, and a minimum of 1 × 10^5 cells were acquired using the CytoFLEX LX Flow Cytometer (FC)(Beckman Coulter, USA). Data was analyzed using FlowJo software v.10.6 (Flowjo LCC, Ashland, OR, USA).\nThis extended panel of AMPs encompassed chicken-derived peptides (D-CATH-2, l-CATH-2), mouse-derived peptide (CRAMP), horse-derived peptides (eCATH-1, eCATH-3), parrot-derived peptides (ER2, ER3, AG3), and synthetic peptides (CR165, CR174), all of which were readily accessible within our laboratory. As previously described, these AMPs were co-incubated with PEDV.\nFig. 5 Antiviral effects of a diverse group of AMPs on PEDV infection. Vero cells were incubated for 3 h with a combination of PEDV-GFP and AMPs, as described previously. FC was utilized to assess the inhibitory impact of AMPs.\nFigure S4. The antiviral activity of FL LL-37 (fluorogenic LL-37 ) and unlabeled LL-37. Peptides were co-incubated at 1 and 5 µM with PEDV and added to Vero cells for 3 h, followed by FC analysis to examine the infectivity."}, "[3]": {"tested_on": "PEDV", "assay": "Co-incubation antiviral assay, PEDV MOI=1, Vero cells", "format": "cell-based, Porcine epidemic diarrhea virus", "conditions": "PEDV MOI=1, co-incubation, Vero cells, FC; Fig. 4B", "experimental": "as §1\nFig. 4 The inhibitory effect of AMPs on PEDV at MOI=1. A) Fluorescence microscopy image was captured at 20 × magnification to visualize the GFP fluorescence signal in Vero cells following co-incubation of AMPs and PEDV at MOI=1. B) The percentage of GFP-positive cells was determined by FC after 3 h co-incubation of PEDV and AMPs. C) The fluorescence intensity of GFP across three different concentrations of LL-37 was illustrated through the FC histogram. […] The reported values in 4A represent the mean ± SD of three independent experiments performed in duplicate **** p < 0.0001."}, "[4]": {"tested_on": "PEDV-GFP", "assay": "Co-incubation antiviral assay, PEDV-GFP MOI=0.3, Vero cells (fluorescence microscopy and flow cytometry)", "format": "cell-based, Porcine epidemic diarrhea virus", "experimental": "as §1\nFig. 2 Effect of AMPs on the infectivity of PEDV (MOI=0.3). A) Experimental set-up of the ‘co-incubation assay’; Vero cells were subjected to 2 h exposure to a combination of AMPs and PEDV-GFP. Afterward, the supernatant was replaced, and the cells were incubated for an additional 24 h B) Fluorescent microscopy (20 × magnification) was performed to visualize the fluorescence signal of GFP in the presence of 1, 5, and 10 µM AMPs. The cell-only sample consists exclusively of cells while the no-peptide sample contains only PEDV-GFP, with no peptides present.\nFig. 3 Antiviral activity of AMPs as determined by flow cytometry (FC). A) The percentage of GFP-positive cells following a 2 h incubation with a combination of PEDV and AMPs. […] The values reported here depict the average ± SD derived from three independent experiments performed in duplicate. * p < 0.05; ** p < 0.01."}, "[5]": {"tested_on": "PEDV", "assay": "Transmission electron microscopy of peptide-treated virus", "set-up": "species or system Porcine epidemic diarrhea virus", "conditions": "PEDV treated with 10 µM peptide, negative stain, Fig. 9; for effect on virus morphology / membrane (TEM): one minute at 37 °C", "experimental": "PEDV was treated with CATH-B1, LL-37, PMAP-23, and PMAP-36 for one minute at 37 °C. Subsequently, 10 µL of the sample was placed onto a freshly carbon-coated copper grid. The grids were washed 3 times with PBS and then fixed with 1% glutaraldehyde (Sigma-Aldrich, St. Louis, MO, USA) in PBS for 10 min. Following this fixation, the grids were rinsed 2 times with PBS and 4 times with MilliQ water. They were stained for 5 min in Uranyl Acetate (pH 7) then briefly washed with methylcellulose/uranyl acetate (pH 4) and incubated for 5 min on ice. Finally, the grids were looped out of the solution and air-dried. The samples were subsequently examined in a JEM1010 (JEOL) equipped with a Veleta 2k × 2k CCD camera (EMSIS, Munster, Germany).\nFig. 9 The effect of AMPs on the morphology of the virus. PEDV (MOI=0.3), which was pre-incubated with peptides. TEM images were taken of PEDV alone (A–D), PEDV treated with 10 µM LL-37 (E-H), PEDV treated with 10 µM CATH-B1 (I-L), PEDV treated with 10 µM PMAP-23 (M, N), and PEDV treated with 10 µM PMAP-36 (O, P). […] Micrographs were captured with a pixel size of 0,5 nm and analyzed visually using ImageJ. The micrographs are representative of observations from three independent experiments. Scale bars represent 100 nm."}, "[6]": {"tested_on": "PEDV", "assay": "Peptide-virus interaction assay with Capto Core 700 beads", "format": "cell-based, Porcine epidemic diarrhea virus", "conditions": "Fig. 8", "experimental": "In order to determine if CATH-B1 and LL-37 physically interact with PEDV, Capto Core 700 beads (GE Healthcare Life Sciences, Chicago, IL, USA) were used to selectively eliminate unbound AMPs. PEDV were pre-incubated with or without CATH-B1/LL-37 in Opti-MEM medium, and Capto Core 700 beads were added, followed by a 1 h incubation at 4 °C while slowly rotating. After centrifugation, supernatants were collected and applied to the cells. To make sure the AMP was removed effectively, we tested samples with peptides but no virus using the same process. The collected supernatants were used to inoculate cells, and the number of infected cells was determined using the described method.\nFig. 8 Interactions between CATH-B1 and LL-37 with PEDV. CATH-B1/LL-37 were pre-incubated with the virus, and subsequently, the peptide and virus were separated using Capto Core beads. The supernatant containing the separated virus was then employed to infect Vero cells. […] The data is presented as the mean ± SEM of three independent experiments in duplicate, each with triplicate samples. **** p < 0.0001."}, "[7]": {"tested_on": "PEDV-GFP", "assay": "Pre-incubation (pre-treatment) antiviral assay", "format": "cell-based, Porcine epidemic diarrhea virus", "conditions": "Vero cells treated 3 h with AMPs (0-10 µM), washed, then infected with PEDV-GFP MOI 0.3 for 2 h; FC; Fig. 6B, C", "experimental": "The effect of AMPs on viral infectivity was also determined when they were added to Vero-cells before (pre-treatment) or after (post-treatment) infection. In the pre-treatment assay (Fig. 6A), Vero cells were treated with different concentrations of CATH-B1 and LL-37 peptides (ranging from 0 to 10 µM) for various durations (1, 2, 3, 4, and 24 h) at 37 °C. Subsequently, the cells were washed 2 times with PBS and infected with PEDV-GFP at an MOI of 0.3 for 2 h\nIn post-incubation assays (Fig. 7A), cells were initially exposed to the virus for 2 h, washed 2times with PBS and subsequently treated with AMPs for 3 h Both for pre- and post-infection assays, after the respective incubation periods, the cells were assessed using fluorescence microscopy and quantified using FC as described above.\nFig. 6 Effects of AMPs in pre-incubation assay. A) Experimental set-up of pre-incubation experiment. B) FC was employed to quantify the percentage of GFP-positive cells during pre-incubation. […] The reported values represent the mean ± SD derived from three independent experiments performed in triplicate. * p < 0.05; ** p < 0.01."}}, "data": [{"substance": "Tamra-(ahx)-LLGDFFRKSKEKIGKEFKRIVQRIKDFLRNLVPRTES [FL LL-37, Tamra-(ahx)-labelled LL-37]", "values": [{"measurement": "cellular localization (confocal microscopy)", "setting": "[1]; 1 and 5 µM, 1 and 3 h incubation, Vero cells, fixed, DAPI, Fig. 10B", "value": "predominant intracellular localization"}, {"measurement": "uptake or attachment to Vero cells (FC)", "setting": "[1]; 3 h incubation with Vero cells, washing, FC fluorescence, two concentrations, unlabeled LL-37 as negative control, Fig. 10A", "value": "substantial concentration-dependent uptake or attachment"}, {"measurement": "uptake at 4 °C (FC)", "setting": "[1]; Vero cells at 4 °C versus 37 °C, 1 and 5 µM, 30, 60, 180 min, Fig. S5", "value": "significant reduction in the uptake"}, {"measurement": "effect of fluorogenic labelling on antiviral activity", "setting": "[2]; 1 and 5 µM co-incubated with PEDV, Vero cells 3 h, compared with unlabeled LL-37, Fig. S4", "value": "no effect on the antiviral activity"}]}, {"substance": "PIRNWWIRIWEWLNGIRKRLRQRSPFYVRG HLNVTSTPQP (PIRNWWIRIWEWLNGIRKRLRQRSPFYVRGHLNVTSTPQP) [CATH-B1, chicken cathelicidin, 40 residues]", "values": [{"measurement": "antiviral effect at MOI=1, in words", "setting": "[3]", "value": "diminished as the MOI increased"}, {"measurement": "percentage of GFP-positive cells (FC), co-incubation", "setting": "[4]; 10 µM peptide, PEDV-GFP MOI=0.3, 2 h co-incubation then 24 h, no-peptide control approximately 35%, three independent experiments in duplicate, Fig. 3A", "value": "1–2%"}, {"measurement": "infected cells by fluorescent microscopy, co-incubation", "setting": "[4]; PEDV-GFP MOI=0.3, 5 and 10 µM peptide, 2 h co-incubation then 24 h, compared to control without peptide, Fig. 2B", "value": "reduced numbers of infected cells"}, {"measurement": "virus aggregation (TEM)", "setting": "[5]", "value": "extensive virus aggregation"}, {"measurement": "effect on virus morphology / membrane (TEM)", "setting": "[5]", "value": "significant membrane damage"}, {"measurement": "virus infectivity, peptide pre-incubated with beads before PEDV introduction", "setting": "[6]; Capto Core 700 beads, Vero cells", "value": "minimal effects on virus infectivity"}, {"measurement": "virus infectivity, peptide incubated with PEDV without beads", "setting": "[6]; no Capto Core 700 beads, Vero cells", "value": "a decrease in virus infectivity"}, {"measurement": "antiviral activity when peptide is combined with virus and beads", "setting": "[6]; peptide + PEDV, then Capto Core 700 beads 1 h at 4 °C, supernatant applied to Vero cells", "value": "remained unchanged"}, {"measurement": "antiviral activity in pre-incubation assay, in words", "setting": "[7]", "value": "strong activity only at 10 μM"}]}, {"substance": "RRWVQRWIRRWRKVAAARRWVQRWIRRWRPKV [CR-174, non-naturally occurring synthetic (designed) AMP]", "values": [{"measurement": "prevention of PEDV-GFP entry into Vero cells, extended AMP panel, in words", "setting": "[2]", "value": "unsuccessful in significantly preventing PEDV-GFP entry"}]}, {"substance": "RIIDLLWRVRRPQKPKFVTVWVR [PMAP-23, porcine cathelicidin, 23 residues]", "values": [{"measurement": "effect on virus morphology / membrane (TEM)", "setting": "[5]", "value": "structure remained unchanged"}]}, {"substance": "GRFRRLRKKTRKRLKKIGKVLKWIPPIVGSIPLGCG [PMAP-36, porcine cathelicidin, 36 residues]", "values": [{"measurement": "effect on virus morphology / membrane (TEM)", "setting": "[5]", "value": "structure remained unchanged"}]}, {"substance": "ISRLAGLLRKGGEKIGEKLKKIGQKIKNFFQKLVPQPE [CRAMP, mouse-derived peptide, 38 residues]", "values": [{"measurement": "prevention of PEDV-GFP entry into Vero cells, extended AMP panel, in words", "setting": "[2]", "value": "failed to neutralize PEDV"}]}, {"substance": "RRWVQRWIRWVQRWVR [CR-165, non-naturally occurring synthetic (designed) AMP]", "values": [{"measurement": "prevention of PEDV-GFP entry into Vero cells, extended AMP panel, in words", "setting": "[2]", "value": "unsuccessful in significantly preventing PEDV-GFP entry"}]}]}
